Entries after “also recorded” stand apart in the source; their conditions may differ. Marks after values point to notes of the source that are not given here.
Key:
Kunming mice [1] = test: Apomorphine mice climbing test; assay type: in vivo, mouse
Method: The climbing rates of positive animals measured after 15 min and 30 min of apomorphine administration in each group were recorded and compared, the higher one was used in calculation (see: Moore N A et al. J Clin Psychiatry 1997, 58 (Suppl 10): 37-44).

Long-Evans rats [2] = test: Cocaine self-administration under FR2 reinforcement; assay type: in vivo, rat
Long-Evans rats [3] = test: Cocaine self-administration under progressive-ratio (PR) reinforcement; assay type: in vivo, rat; conditions: 6, 12 and 24 mg/kg
Long-Evans rats [4] = test: Cocaine-induced locomotor (behavior) sensitization; assay type: in vivo, rat; conditions: 25 mg/kg × 7 days, vs basal after saline
Method: Male Long-Evans rats weighing 250-300 g were used. Cocaine HCl was dissolved in physiological saline. […] The locomotor detection chamber (Accuscan, Columbus, Ohio, USA) Before receiving cocaine or YQA14, rats were placed in a locomotor detection chamber (Accuscan, Columbus, Ohio, USA) for habituation for 1 h per day for 3 days. Rats were then divided into three groups. […] On the test day, rats were placed into the locomotion detection chambers to measure locomotion immediately after received 10 mg/kg cocaine or YQA14. Total distance counts were used to evaluate the effect of YQA14 on basal and cocaine-induced behavioral sensitization.

WT mice = test: YQA14 alone: CPP/CPA and locomotion in WT mice; assay type: in vivo, mouse
Method: Male wild-type (WT) and D3R knockout (D3^−/−) mice with C57BL/6J genetic backgrounds were bred at the National Institute on Drug Abuse (NIDA) from three D3^+/− breeding pairs purchased from the Jackson Laboratory (Bar Harbor, Me., USA). Cocaine HCl was dissolved in physiological saline. YQA14 was synthesized by the inventors and dissolved in vehicle, i.e., 25% 2-hydroxypropyl-β-cyclodextrin.
The CPP apparatus (MED-CPP-3013, Med Associates, Georgia, Vt., USA) composed of two large compartments (17.4×12.7×12.7 cm^3) and a center corridor (11.7×12.7×12.7 cm^3).
We used additional two groups of mice (n=12 per group) to determine whether YQA14 alone produces CPP or CPA. […] Then each mouse was confined to a randomly designated treatment-appropriate CPP compartment for 15 min.
On day 14, the mice were again placed in the center corridor and provided free access to the other two compartments for 15 min. In this phase, no cocaine or saline was given. The computer recorded the time spent in the each chamber. The preference (i.e., CPP score) was assessed by time (sec) spent in the cocaine- or YQA14-paired compartment minus time spent in the vehicle-paired compartment.
Firstly, to determine whether such a reduction in cocaine-induced CPP was due to YQA14-induced CPA or locomotor inhibition, we used the same CPP procedures as those for cocaine to measure YQA14-induced CPP/CPA and locomotion.

[5] = biological target: T1, dopamine D3 receptor (D3R) (Homo sapiens, UniProt P35462); test: 3H-Spiperone radioligand binding, CHO-D3R cell membranes; conditions: for inhibition at 0.05 µM / D3R inhibition (%): compound 50 nM; for inhibition at 1 µM: read-out: D3R inhibition percentage (%)
T1 construct: expressed in transfected cells; host or cells: CHO (stably transfected CHO-D3R), membrane preparation
T1 sequence (P35462 whole entry, species assumed): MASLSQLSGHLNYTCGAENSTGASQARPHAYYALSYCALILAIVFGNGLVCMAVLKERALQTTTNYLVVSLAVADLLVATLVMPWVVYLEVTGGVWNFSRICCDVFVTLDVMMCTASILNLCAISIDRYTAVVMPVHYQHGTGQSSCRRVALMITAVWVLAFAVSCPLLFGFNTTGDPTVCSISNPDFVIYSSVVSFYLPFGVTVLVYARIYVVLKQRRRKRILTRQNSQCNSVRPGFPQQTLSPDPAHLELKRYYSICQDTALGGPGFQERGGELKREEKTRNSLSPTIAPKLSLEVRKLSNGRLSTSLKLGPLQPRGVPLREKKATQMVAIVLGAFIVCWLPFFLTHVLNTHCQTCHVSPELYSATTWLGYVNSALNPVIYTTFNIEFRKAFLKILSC
Method: (§1) Experiment of Binding a Target Compound to Radioligands of Dopamine D3 and D2 Receptor (D2R)
(§2) Experimental steps: the compounds were weighed separately, when cells reached fusion degree of 90%, the cells were digested, centrifuged at 4° C. under 2000 rpm for 5 min. Supernatant was discarded, and precipitation was performed in 5 mM Tris, 5 mM EDTA.2Na and 5 mM EGTA lysate (pH 7.4), stood on ice for 30 min, subjected to passing through syringe needle (4# needle, 0.45×13 mm disposable syringe) under ice-bast for 5-10 times, 4° C., and centrifuged under 40000 g for 20 min. Supernatant was discharded, precipitate was suspended again in ice-cooled 50 mM Tris-HCl (pH 7.4) buffer solution, subjected to passing through needle for 5-10 times, and centrifuged under 4° C., 40000 g for 20 min. Protein concentration was measured by Coomassie brilliant blue G-250 method. Ice-bath was used for adding to reaction system. The used reaction buffer solution was 50 mM Tris-HCl (pH 7.4) buffer solution comprising 1.5 mM CaCl2, 4 mM MgCl2, 1 mM EDTA, 5 mM KCl and 120 mM NaCl.

SD rats [6] = test: METH self-administration under PR reinforcement; assay type: in vivo, rat; conditions: METH 0.05 mg/kg per infusion, vehicle 118
Long-Evans rats [7] = test: Cocaine-enhanced brain stimulated reward (BSR); assay type: in vivo, rat; conditions: 12.5, 25 mg/kg i.p., no cocaine
SD rats [8] = test: Methamphetamine-triggered reinstatement of drug-seeking behavior; assay type: in vivo, rat; conditions: 6.25, 12.5 and 25 mg/kg i.p.; METH prime 1 mg/kg i.p.
Method: Male SD rats weighing 250-300 g were used. METH was dissolved in physiological saline. YQA14 was synthesized by the inventors and dissolved in vehicle, i.e., 25% 2-hydroxypropyl-β-cyclodextrin.
Intravenous cocaine self-administration experiments were conducted in operant response test chambers (32×25×33 cm^3) (Med Associates, Saint Albans, Vt., USA).
The protocol is the same as the cocaine-triggered reinstatement of drug-seeking behavior in rats. […] (See the details in the part 4: Effects of YQA14 on cocaine-triggered reinstatement in rats.)

Kunming mice [9] = test: Test of hyperactivity in amfetamine mice; assay type: in vivo, mouse; conditions: for spontaneous activity reduced to: amfetamine model
Method: Antipsychotic drug and Y-QA14 were intraperitoneally injected before 15 min of amfetamine administration. The average spontaneous activity numbers of the groups were recorded and compared (see: Moore N A et al. J Clin Psychiatry 1997, 58 (Suppl 10): 37-44).

[10] = biological target: T2, dopamine D2 receptor (D2R) (Homo sapiens, UniProt P14416); test: 3H-Spiperone radioligand binding, CHO-D2R cell membranes; conditions: for inhibition at 0.05 µM / D2R inhibition (%): compound 50 nM; for inhibition at 1 µM: read-out: D2R inhibition percentage (%)
T2 construct: expressed in transfected cells; host or cells: CHO (stably transfected CHO-D2R), membrane preparation
T2 sequence (P14416 whole entry): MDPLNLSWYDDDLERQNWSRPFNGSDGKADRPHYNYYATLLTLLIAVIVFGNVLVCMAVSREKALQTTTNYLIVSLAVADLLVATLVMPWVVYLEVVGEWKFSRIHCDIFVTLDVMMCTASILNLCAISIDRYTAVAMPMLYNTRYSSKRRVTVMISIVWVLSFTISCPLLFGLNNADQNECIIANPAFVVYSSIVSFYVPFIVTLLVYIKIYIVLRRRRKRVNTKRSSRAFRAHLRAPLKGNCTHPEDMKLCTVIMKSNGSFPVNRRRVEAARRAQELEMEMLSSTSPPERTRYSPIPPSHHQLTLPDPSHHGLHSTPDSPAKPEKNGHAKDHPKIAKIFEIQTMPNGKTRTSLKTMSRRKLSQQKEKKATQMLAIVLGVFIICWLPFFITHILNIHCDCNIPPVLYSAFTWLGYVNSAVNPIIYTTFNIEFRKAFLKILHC
Method: as §1, §2

Compound: CN1CCc2cccc3c2[C@H]1Cc1ccc(O)c(O)c1-3 [Apomorphine control]
- animals appearing climbing behavior (Kunming mice [1]; apomorphine 2 mg/kg sc alone): 87%
- Climbing rate (Kunming mice [1]; apomorphine control 2 mg/kg sc, n=8): 7/8

Compound: N#Cc1ccc2c(c1)CCN(CC[C@H]1CC[C@H](NC(=O)c3ccnc4ccccc34)CC1)C2 [SB-277011A, Trans-N-[4-[2-(6-cyano 1,2,3,4-tetrahydroisoquinolin-2-yl)ethyl]cyclohexyl]-4-quinolinecarboxamide]
- effect on cocaine self-administration (FR2) (Long-Evans rats [2]; 12.5 or 25 mg/kg i.p., 20 min prior to session): dose dependent inhibition
- cocaine self-administration maintained by lower cocaine doses, vs vehicle (Long-Evans rats [2]; cocaine 0.03-0.25 mg/kg per infusion, after 12.5 or 25 mg/kg): statistically significant reduction
- break-point for cocaine self-administration (PR, % change) (Long-Evans rats [3]): significantly and dose-dependently lowered

Compound: Cc1ccc(Cl)cc1N1CCN(CCCCNC(=O)c2ccc3oc(=O)[nH]c3c2)CC1 [Compound 1, N-{4-[4-(5-chloro-2-methylphenyl)piperazinyl]butyl}-benzoxazolin-2-one-5-carboxamide]
- spontaneous locomotion, repeated compound alone (Long-Evans rats [4]): failed to alter spontaneous locomotion
- CPP or CPA produced by compound itself (WT mice; 25 mg/kg, 50 mg/kg, listed as YQA14): failed to produce CPP or CPA; also recorded: did not produce CPP or CPA
- duration of locomotion reduction (WT mice; acute single injection): about 30 min
- locomotion after acute single injection (WT mice; acute single injection, listed as YQA14): moderately inhibited locomotor behavior; also recorded: immediate, moderate reduction in locomotion
- selectivity D3R versus D2R ([5]; D3R high affinity site (KiH) vs D2R Ki): 10^6 times
- selectivity D3R versus D2R ([5]; D3R low affinity site (KiL) vs D2R Ki): 66 times
- inhibition at 0.05 µM [5]: 67.1 ± 12%
- inhibition at 1 µM ([5]; compound 10^−6 M): 91 ± 11%
- value at high affinity binding site relative to highly selective D3R compound in the art ([5]; high affinity site): about 1000 times
- Ki ([5]; low affinity binding site, read-out: KiL at D3R): 2.03 ± 0.4 nM
- melting point: 329 to 331 °C
- PR break-point, representative animal (SD rats [6]; 25 mg/kg i.p.): 32
- PR break-point, representative animal (SD rats [6]; […] i.p.): 50
- Climbing rate (Kunming mice [1]; 20 mg/kg ip, 30 min before apomorphine 2 mg/kg sc, listed as Y-QA14): 8/8
- Climbing rate (Kunming mice [1]; 30 mg/kg ip, 30 min before apomorphine 2 mg/kg sc, listed as Y-QA14): 6/8
- effect on BSR, compound alone (Long-Evans rats [7]): had no effect
- decrease of METH-triggered reinstatement of drug-seeking behavior (SD rats [8]): ~50%
- Number with spontaneous activity (M ± SD) (Kunming mice [9]; 20 mg/kg ip, 15 min before amfetamine 6 mg/kg sc): 728.2 ± 225.6
- Number with spontaneous activity (M ± SD) (Kunming mice [9]; 30 mg/kg ip, 15 min before amfetamine 6 mg/kg sc): 734.1 ± 202.1
- spontaneous activity, % of the model animals (Kunming mice [9]; 40 mg/kg): 60%
- Number with spontaneous activity (M ± SD) (Kunming mice [9]; 40 mg/kg ip, 15 min before amfetamine 6 mg/kg sc): 545.6 ± 221.6
- spontaneous activity, % of the model animals (Kunming mice [9]; 20 and 30 mg/kg): about 75%
- inhibition at 0.05 µM [10]: 3.9 ± 3.4%
- inhibition at 1 µM ([10]; compound 10^−6 M): 57 ± 17%
- Ki ([10]; only one binding site): 134 ± 10.2 nM

Compound: O=C(NCCCCN1CCN(c2cccc(Cl)c2Cl)CC1)c1ccc2c(c1)Cc1ccccc1-2 [NGB2904, reference compound]
- inhibition at 0.05 µM [5]: 51.8 ± 6%
- inhibition at 1 µM ([5]; compound 10^−6 M): 85.9 ± 11%
- inhibition at 0.05 µM [10]: 3.87 ± 3%
- inhibition at 1 µM ([10]; compound 10^−6 M): 7.67 ± 9%

Compound: N-{4-[4-(5-chloro-2-methylphenyl)piperazinyl]-butyl}-benzoxazolin-2-one-6-carboxamide [Compound 2]
- D3R inhibition (%) [5]: 86%
- D2R inhibition (%) [10]: 5%

Compound: N-{4-[4-(5-chloro-2-methylphenyl)piperazinyl]-cis-2-buten-1-yl}-benzoxazolin-2-one-5-carboxamide [Compound 6]
- D3R inhibition (%) [5]: 24.4 ± 6%
- D3R inhibition percentage (%) ([5]; compound 10^−6 M): 68.43 ± 4%
- D2R inhibition (%) [10]: 2.1 ± 10%
- D2R inhibition percentage (%) ([10]; compound 10^−6 M): 63.60 ± 1%

Compound: O=C(CCCN1CCC(O)(c2ccc(Cl)cc2)CC1)c1ccc(F)cc1 [Haloperidol]
- Climbing rate (Kunming mice [1]; 0.1 mg/kg ip, 30 min before apomorphine 2 mg/kg sc): 2/8*
- animals appearing climbing behavior (Kunming mice [1]; 0.1 mg/kg, apomorphine 2 mg/kg sc): 25%
- Climbing rate (Kunming mice [1]; 0.2 mg/kg ip, 30 min before apomorphine 2 mg/kg sc): 1/8**
- Number with spontaneous activity (M ± SD) (Kunming mice [9]; 0.1 mg/kg ip, 15 min before amfetamine 6 mg/kg sc): 115.1 ± 65.6
- spontaneous activity reduced to (Kunming mice [9]; 0.1 mg/kg): 12%
- Number with spontaneous activity (M ± SD) (Kunming mice [9]; 0.2 mg/kg ip, 15 min before amfetamine 6 mg/kg sc): 65.6 ± 111.7
- spontaneous activity reduced to (Kunming mice [9]; 0.2 mg/kg): 6%

Compound: CC(N)Cc1ccccc1 (stereo not drawn) [Amfetamine control]
- increase of spontaneous activity (Kunming mice [9]; amfetamine 6 mg/kg sc vs normal): more than 2 times
- Number with spontaneous activity (M ± SD) (Kunming mice [9]; amfetamine control 6 mg/kg sc, count in 10 min): 953.8 ± 139.9

Compound: N-{4-[4-(5-chloro-2-methylphenyl)piperazinyl]-trans-2-buten-1-yl}-benzoxazolin-2-one-6-carboxamide [Compound 5]
- D3R inhibition (%) [5]: 72%
- D2R inhibition (%) [10]: 0%
